Experiments:
Experiment in all cases: cells
[1] = tested on: HCE-T; format: functional, cell-based, Homo sapiens; settings: Homo sapiens, HCE-T;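 note: cell viability assay read-out, reporting inhibition of HCE-T cell growth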
Description: SANGER: Inhibition of human HCE-T cell growth in a cell viability assay.

[2] = tested on: SK-MEL-1; format: functional, cell-based; settings: Homo sapiens;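 note: growth inhibition of human SK-MEL-1 cells, read out by a cell viability assay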
Description: SANGER: Inhibition of human SK-MEL-1 cell growth in a cell viability assay.

[3] = tested on: HSC-2; format: functional, cell-based, Homo sapiens; settings: Homo sapiens, HSC-2;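 note: growth inhibition of human HSC-2 cells, read out by a cell viability assay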
Description: SANGER: Inhibition of human HSC-2 cell growth in a cell viability assay.

[4] = tested on: Mo; format: functional, cell-based; settings: Homo sapiens
Description: SANGER: Inhibition of human Mo-T cell growth in a cell viability assay.

[5] = tested on: PA-1; format: functional, cell-based, Homo sapiens; settings: Homo sapiens, PA-1;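 note: IC50 for suppression of PA-1 cell proliferation, determined with a cell viability read-out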
Description: SANGER: Inhibition of human PA-1 cell growth in a cell viability assay.

[6] = tested on: LS-1034; format: functional, cell-based, Homo sapiens; settings: Homo sapiens, LS-1034
Description: SANGER: Inhibition of human LS-1034 cell growth in a cell viability assay.

[7] = tested on: G-402; format: functional, cell-based, Homo sapiens; settings: Homo sapiens, G-402
Description: SANGER: Inhibition of human G-402 cell growth in a cell viability assay.

[8] = tested on: MDA-MB-175-VII; format: functional, cell-based, Homo sapiens; settings: Homo sapiens, MDA-MB-175-VII
[9] = tested on: IA-LM; format: functional, cell-based, Homo sapiens; settings: Homo sapiens, IA-LM;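 note: cell viability assay measuring growth inhibition of human IA-LM cells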
Description: SANGER: Inhibition of human IA-LM cell growth in a cell viability assay.

[10] = tested on: C8166; format: functional, cell-based; settings: Homo sapiens;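 note: growth inhibition of human C8166 cells measured by a cell viability assay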
Description: SANGER: Inhibition of human C8166 cell growth in a cell viability assay.

[11] = tested on: CHL-1; format: functional, cell-based, Homo sapiens; settings: Homo sapiens, CHL-1;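 note: cell growth inhibition, read out with a cell viability assay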
Description: SANGER: Inhibition of human CHL-1 cell growth in a cell viability assay.

[12] = tested on: SK-LMS-1; format: functional, cell-based, Homo sapiens; settings: Homo sapiens, SK-LMS-1;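 note: growth inhibition of human SK-LMS-1 cells, read out with a cell viability assay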
Description: SANGER: Inhibition of human SK-LMS-1 cell growth in a cell viability assay.

[13] = tested on: HEL; format: functional, cell-based, Homo sapiens; settings: Homo sapiens, HEL;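 note: growth inhibition of HEL cells, read out with a cell viability assay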
Description: SANGER: Inhibition of human HEL cell growth in a cell viability assay.

[14] = tested on: BB65-RCC; format: functional, cell-based, Homo sapiens; settings: Homo sapiens, BB65-RCC;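 note: growth inhibition of the cell line, measured with a cell viability assay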
Description: SANGER: Inhibition of human BB65-RCC cell growth in a cell viability assay.

[15] = tested on: GAMG; format: functional, cell-based, Homo sapiens; settings: Homo sapiens, GAMG;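 note: cell growth inhibition measured by a viability assay in the GAMG human cell line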
Description: SANGER: Inhibition of human GAMG cell growth in a cell viability assay.

[16] = tested on: PC-3; format: functional, cell-based, Homo sapiens; settings: Homo sapiens, PC-3;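 note: cell viability assay measuring growth inhibition of PC-3 cells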
Description: SANGER: Inhibition of human PC-3 cell growth in a cell viability assay.

[17] = tested on: RPMI-7951; format: functional, cell-based, Homo sapiens; settings: Homo sapiens, RPMI-7951
Description: SANGER: Inhibition of human RPMI-7951 cell growth in a cell viability assay.

[18] = tested on: HT-1080; format: functional, cell-based, Homo sapiens; settings: Homo sapiens, HT-1080
Description: SANGER: Inhibition of human HT-1080 cell growth in a cell viability assay.

[19] = tested on: SW 962; format: functional, cell-based, Homo sapiens; settings: Homo sapiens, SW 962;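 note: growth inhibition of human SW962 cells, read out by a cell viability assay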
Description: SANGER: Inhibition of human SW962 cell growth in a cell viability assay.

[20] = tested on: DU-145; format: functional, cell-based, Homo sapiens; settings: Homo sapiens, DU-145
Description: SANGER: Inhibition of human DU-145 cell growth in a cell viability assay.

[21] = tested on: NCI-H1563; format: functional, cell-based, Homo sapiens; settings: Homo sapiens, NCI-H1563;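 note: growth inhibition of human NCI-H1563 cells, read out with a cell viability assay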
Description: SANGER: Inhibition of human NCI-H1563 cell growth in a cell viability assay.

[22] = tested on: SBC-5; format: functional, cell-based, Homo sapiens; settings: Homo sapiens, SBC-5;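 note: cell viability assay read-out, IC50 is the concentration that inhibits growth of the cells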
Description: SANGER: Inhibition of human SBC-5 cell growth in a cell viability assay.

[23] = tested on: NCI-H1755; format: functional, cell-based, Homo sapiens; settings: Homo sapiens, NCI-H1755;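 note: cell viability readout used to measure growth inhibition of NCI-H1755 cells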
Description: SANGER: Inhibition of human NCI-H1755 cell growth in a cell viability assay.

[24] = tested on: SF-126; format: functional, cell-based, Homo sapiens; settings: Homo sapiens, SF-126;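 note: growth inhibition of human SF126 cells, read out with a cell viability assay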
Description: SANGER: Inhibition of human SF126 cell growth in a cell viability assay.

[25] = tested on: MOLT-16; format: functional, cell-based; settings: Homo sapiens;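 note: growth inhibition of human MOLT-16 cells, read out with a cell viability assay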
Description: SANGER: Inhibition of human MOLT-16 cell growth in a cell viability assay.

[26] = tested on: A204; format: functional, cell-based, Homo sapiens; settings: Homo sapiens, A204;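 note: growth inhibition of human A204 cells, read out with a cell viability assay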
Description: SANGER: Inhibition of human A204 cell growth in a cell viability assay.

[27] = tested on: UO-31; format: functional, cell-based; settings: Homo sapiens;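 note: cell viability assay measuring inhibition of cell growth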
Description: SANGER: Inhibition of human U031 cell growth in a cell viability assay.

[28] = tested on: HDLM-2; format: functional, cell-based; settings: Homo sapiens;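 note: cell viability assay measuring suppression of HDLM-2 proliferation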
Description: SANGER: Inhibition of human HDLM-2 cell growth in a cell viability assay.

[29] = tested on: SCC-4; format: functional, cell-based, Homo sapiens; settings: Homo sapiens, SCC-4;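 note: growth inhibition of human SCC-4 cells, read out as cell viability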
Description: SANGER: Inhibition of human SCC-4 cell growth in a cell viability assay.

[30] = tested on: Becker; format: functional, cell-based, Homo sapiens; settings: Homo sapiens, Becker;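 note: growth inhibition of Becker cells, read out with a cell viability assay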
Description: SANGER: Inhibition of human Becker cell growth in a cell viability assay.

[31] = tested on: RVH-421; format: functional, cell-based, Homo sapiens; settings: Homo sapiens, RVH-421
Description: SANGER: Inhibition of human RVH-421 cell growth in a cell viability assay.

[32] = tested on: NCI-H28; format: functional, cell-based, Homo sapiens; settings: Homo sapiens, NCI-H28;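 note: growth inhibition of human NCI-H28 cells, read out as cell viability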
Description: SANGER: Inhibition of human NCI-H28 cell growth in a cell viability assay.

[33] = tested on: K5; format: functional, cell-based, Homo sapiens; settings: Homo sapiens, K5
Description: SANGER: Inhibition of human K5 cell growth in a cell viability assay.

[34] = tested on: HD-MY-Z; format: functional, cell-based, Homo sapiens; settings: Homo sapiens, HD-MY-Z;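 note: growth inhibition of HD-MY-Z cells, read out with a cell viability assay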
Description: SANGER: Inhibition of human HD-MY-Z cell growth in a cell viability assay.

[35] = tested on: NCI-H1155; format: functional, cell-based; settings: Homo sapiens;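 note: cell growth inhibition measured by a viability assay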
Description: SANGER: Inhibition of human NCI-H1155 cell growth in a cell viability assay.

[36] = tested on: TE-5; format: functional, cell-based, Homo sapiens; settings: Homo sapiens, TE-5;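 note: inhibition of cell growth, read out by a cell viability assay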
Description: SANGER: Inhibition of human TE-5 cell growth in a cell viability assay.

[37] = tested on: RERF-LC-MS; format: functional, cell-based, Homo sapiens; settings: Homo sapiens, RERF-LC-MS;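 note: growth inhibition of human RERF-LC-MS cells, read out by a cell viability assay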
Description: SANGER: Inhibition of human RERF-LC-MS cell growth in a cell viability assay.

[38] = tested on: MOLT-4; format: functional, cell-based; settings: Homo sapiens;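 note: growth inhibition of MOLT-4 cells, determined with a cell viability readout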
Description: SANGER: Inhibition of human MOLT-4 cell growth in a cell viability assay.

[39] = tested on: BEN; format: functional, cell-based, Homo sapiens; settings: Homo sapiens, BEN;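 note: growth inhibition of the BEN cell line, read out with a cell viability assay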
Description: SANGER: Inhibition of human BEN cell growth in a cell viability assay.

[40] = tested on: SCC-9; format: functional, cell-based, Homo sapiens; settings: Homo sapiens, SCC-9;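 note: Read-out is a cell viability assay, with values giving inhibition of cell growth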
Description: SANGER: Inhibition of human SCC-9 cell growth in a cell viability assay.

[41] = tested on: ABC-1; format: functional, cell-based, Homo sapiens; settings: Homo sapiens, ABC-1;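 note: growth inhibition of human ABC-1 cells, read out by a cell viability assay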
Description: SANGER: Inhibition of human ABC-1 cell growth in a cell viability assay.

[42] = tested on: SNU-449; format: functional, cell-based, Homo sapiens; settings: Homo sapiens, SNU-449
Description: SANGER: Inhibition of human SNU-449 cell growth in a cell viability assay.

[43] = tested on: OVCAR-5; format: functional, cell-based, Homo sapiens; settings: Homo sapiens, OVCAR-5;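 note: growth inhibition of human OVCAR-5 cells, read out with a cell viability assay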
Description: SANGER: Inhibition of human OVCAR-5 cell growth in a cell viability assay.

[44] = tested on: COLO-684; format: functional, cell-based; settings: Homo sapiens
Description: SANGER: Inhibition of human COLO-684 cell growth in a cell viability assay.

[45] = tested on: U-251; format: functional, cell-based, Homo sapiens; settings: Homo sapiens, U-251;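 note: growth inhibition of human U-251 cells, read out through a cell viability assay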
Description: SANGER: Inhibition of human U251 cell growth in a cell viability assay.

[46] = tested on: HCC1395; format: functional, cell-based, Homo sapiens; settings: Homo sapiens, HCC1395;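 note: growth inhibition of HCC1395 cells, read out by a cell viability assay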
Description: SANGER: Inhibition of human HCC1395 cell growth in a cell viability assay.

[47] = tested on: RPMI-2650; format: functional, cell-based, Homo sapiens; settings: Homo sapiens, RPMI-2650
Description: SANGER: Inhibition of human RPMI-2650 cell growth in a cell viability assay.

[48] = tested on: RPMI-8226; format: functional, cell-based; settings: Homo sapiens
Description: SANGER: Inhibition of human RPMI-8226 cell growth in a cell viability assay.

[49] = tested on: A-427; format: functional, cell-based, Homo sapiens; settings: Homo sapiens, A-427;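 note: growth inhibition of human A-427 cells, read out by a cell viability assay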
Description: SANGER: Inhibition of human A427 cell growth in a cell viability assay.

[50] = tested on: HCC2218; format: functional, cell-based; settings: Homo sapiens;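 note: cell viability assay read-out, with IC50 given as the concentration that inhibits growth of the cell line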
Description: SANGER: Inhibition of human HCC2218 cell growth in a cell viability assay.

[51] = tested on: NCI-H720; format: functional, cell-based; settings: Homo sapiens;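 note: growth inhibition of human NCI-H720 cells determined by a cell viability assay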
Description: SANGER: Inhibition of human NCI-H720 cell growth in a cell viability assay.

[52] = tested on: COR-L88; format: functional, cell-based; settings: Homo sapiens;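 note: growth inhibition of COR-L88 cells, read out with a cell viability assay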
Description: SANGER: Inhibition of human COR-L88 cell growth in a cell viability assay.

For `Cn1cc(C2=C(c3ccc(Cl)cc3Cl)C(=O)NC2=O)c2ccccc21` [SB-216763], the IC50 [1] was over 10 µM, the IC50 [2] was over 10 µM and the IC50 [3] was over 10 µM. The IC50 [4] was over 10 µM, the IC50 [5] was over 10 µM and the IC50 [6] was over 10 µM. It also gave an IC50 [7] of over 10 µM, an IC50 [8] of over 10 µM and an IC50 [9] of over 10 µM. For the same molecule, the IC50 [10] was over 10 µM, the IC50 [11] was over 10 µM and the IC50 [12] was over 10 µM. It also gave an IC50 [13] of over 10 µM, an IC50 [14] of over 10 µM and an IC50 [15] of 6.65 µM. The IC50 [16] was over 10 µM, the IC50 [17] was over 10 µM and the IC50 [18] was over 10 µM. It also gave an IC50 [19] of over 10 µM, an IC50 [20] of over 10 µM and an IC50 [21] of over 10 µM. For the same molecule, the IC50 [22] was over 10 µM, the IC50 [23] was over 10 µM and the IC50 [24] was over 10 µM. For the same molecule, the IC50 [25] was over 10 µM, the IC50 [26] was over 10 µM and the IC50 [27] was over 10 µM. The IC50 [28] was 0.21 µM, the IC50 [29] was over 10 µM and the IC50 [30] was over 10 µM. For the same molecule, the IC50 [31] was over 10 µM, the IC50 [32] was over 10 µM and the IC50 [33] was 1.54 µM. The IC50 [34] was over 10 µM, the IC50 [35] was over 10 µM and the IC50 [36] was over 10 µM. For the same molecule, the IC50 [37] was over 10 µM, the IC50 [38] was over 10 µM and the IC50 [39] was over 10 µM. It also gave an IC50 [40] of over 10 µM, an IC50 [41] of over 10 µM and an IC50 [42] of over 10 µM. It also gave an IC50 [43] of over 10 µM, an IC50 [44] of over 10 µM and an IC50 [45] of over 10 µM. The IC50 [46] was over 10 µM, the IC50 [47] was over 10 µM and the IC50 [48] was over 10 µM. It also gave an IC50 [49] of over 10 µM.

In the case of `O=c1cc(-c2cccc3c2Sc2ccccc2S3)oc(N2CCOCC2)c1` [KU-55933], the IC50 [1] is reported as over 10 µM, the IC50 [2] is reported as over 10 µM and the IC50 [3] is reported as over 10 µM. The IC50 [4] was over 10 µM, the IC50 [5] was over 10 µM and the IC50 [6] was over 10 µM. For the same molecule, the IC50 [7] was over 10 µM, the IC50 [8] was over 10 µM and the IC50 [9] was over 10 µM. For the same molecule, the IC50 [10] was over 10 µM, the IC50 [11] was over 10 µM and the IC50 [12] was over 10 µM. It also gave an IC50 [13] of over 10 µM, an IC50 [14] of over 10 µM and an IC50 [15] of over 10 µM. It also gave an IC50 [16] of over 10 µM, an IC50 [17] of over 10 µM and an IC50 [18] of over 10 µM. The IC50 [19] was over 10 µM, the IC50 [20] was 3.27 µM and the IC50 [21] was over 10 µM. For the same molecule, the IC50 [22] was over 10 µM, the IC50 [23] was over 10 µM and the IC50 [24] was over 10 µM. For the same molecule, the IC50 [25] was over 10 µM, the IC50 [26] was over 10 µM and the IC50 [27] was over 10 µM. It also gave an IC50 [28] of over 10 µM, an IC50 [29] of over 10 µM and an IC50 [30] of over 10 µM. For the same molecule, the IC50 [31] was over 10 µM, the IC50 [32] was over 10 µM and the IC50 [33] was over 10 µM. The IC50 [34] was over 10 µM, the IC50 [35] was over 10 µM and the IC50 [36] was over 10 µM. It also gave an IC50 [37] of over 10 µM, an IC50 [38] of over 10 µM and an IC50 [39] of over 10 µM. For the same molecule, the IC50 [40] was over 10 µM, the IC50 [41] was over 10 µM and the IC50 [42] was over 10 µM. The IC50 [43] was over 10 µM, the IC50 [44] was over 10 µM and the IC50 [45] was over 10 µM. It also gave an IC50 [46] of over 10 µM, an IC50 [47] of over 10 µM and an IC50 [48] of over 10 µM. For the same molecule, the IC50 [49] was over 10 µM.

`CC(=O)O[C@@]12CO[C@@H]1C[C@H](O)[C@@]1(C)C(=O)[C@H](O)C3=C(C)[C@@H](OC(=O)[C@H](O)[C@@H](NC(=O)OC(C)(C)C)c4ccccc4)C[C@@](O)([C@@H](OC(=O)c4ccccc4)[C@H]21)C3(C)C` [DOCETAXEL] was tested, and the IC50 [1] was 0.000162 µM, the IC50 [2] was over 0.01 µM and the IC50 [3] was 0.000755 µM. It also gave an IC50 [4] of over 0.01 µM, an IC50 [50] of over 0.01 µM and an IC50 [5] of 0.000687 µM. It also gave an IC50 [6] of over 0.01 µM, an IC50 [7] of 0.000706 µM and an IC50 [8] of over 0.01 µM. The IC50 [9] was over 0.01 µM, the IC50 [10] was over 0.01 µM and the IC50 [11] was 0.000958 µM. The IC50 [13] was over 0.01 µM, the IC50 [14] was 0.00308 µM and the IC50 [15] was 0.000416 µM. The IC50 [16] was over 0.01 µM, the IC50 [17] was 0.000448 µM and the IC50 [18] was 0.000501 µM. The IC50 [19] was 0.00293 µM, the IC50 [20] was over 0.01 µM and the IC50 [21] was over 0.01 µM. For the same molecule, the IC50 [22] was 0.00187 µM, the IC50 [51] was 0.00058 µM and the IC50 [23] was 0.00624 µM. It also gave an IC50 [24] of 0.00329 µM, an IC50 [25] of 0.00827 µM and an IC50 [26] of 0.00934 µM. For the same molecule, the IC50 [27] was 0.00307 µM, the IC50 [28] was over 0.01 µM and the IC50 [29] was 0.000739 µM. The IC50 [30] was 0.00183 µM, the IC50 [31] was 0.00461 µM and the IC50 [32] was 0.00334 µM. For the same molecule, the IC50 [33] was 0.000778 µM, the IC50 [34] was 0.00141 µM and the IC50 [35] was over 0.01 µM. It also gave an IC50 [36] of 0.00106 µM, an IC50 [52] of over 0.01 µM and an IC50 [37] of 0.00113 µM. The IC50 [38] was 0.00471 µM, the IC50 [39] was over 0.01 µM and the IC50 [40] was 0.00132 µM. It also gave an IC50 [41] of over 0.01 µM, an IC50 [42] of over 0.01 µM and an IC50 [43] of 0.00199 µM. The IC50 [44] was over 0.01 µM, the IC50 [45] was 0.0025 µM and the IC50 [46] was over 0.01 µM. For the same molecule, the IC50 [47] was 0.00246 µM, the IC50 [48] was 0.00497 µM and the IC50 [49] was 0.00148 µM.
